Here are results for 19 compounds from patent US20230073449A1, “STROMA-FREE T CELL DIFFERENTIATION FROM HUMAN PLURIPOTENT STEM CELLS” (THE CHILDREN'S MEDICAL CENTER CORPORATION, priority 2020, published 2023).

Test [1] concerns iPSC-derived CD34+ hemogenic endothelial (HE) cells. Put plainly: Second screen and dose response in wild type iPSC-derived CD34+ hemogenic endothelial (HE) cells, stromal-free T cell differentiation. In kind it is cell-based, human. Conditions: for proT cells generated from CD34+ HE cells after treatment with G9a inhibitors at different doses: FIG. 13B-13F; for Exemplary effective dose(s): promotion of T cell differentiation from CD34+ HE cells, 13B-13F. Here is the method:
FIG. 9 is a schematic showing a second screen using wild type iPSC-derived CD34+ hemogenic endothelial (HE) cells (not 5F HSPCs, e.g., as used in […] and Table 2), to test small molecule inhibitors of epigenetic factors for promotion of T cell differentiation.
FIG. 10A-10B is a series of graphs showing the results of the screen from FIG. 9. FIG. 10A is a scatterplot of Z scores, which were calculated for all the small molecules based on the number of T progenitors after treatment. Any small molecule with a Z score greater that 3 was considered as a primary hit. FIG. 10B is a bar graph showing verification of the primary hits. Primary hits were tested in triplicate.
FIG. 12A is a schematic summarizing the experiments (see e.g., FIG. 6-11, Table 2). FIG. 12B is a bar chart showing fold change of proT cells generated from CD34^+ HE cells after treated with UNCO224 at different doses.
FIG. 13A-13F is a series of schematics and graphs showing that G9 inhibitors promote T cell differentiation using the stromal-free differentiation methods as described herein. FIG. 13A is a schematic summarizing the experiments (see e.g., FIG. 6-12, Table 2). FIGS. 13B-13E are a bar charts showing fold change of proT cells generated from CD34^+ HE cells after treatment with other G9a inhibitors at different doses.
(§1) A group of epigenetic regulators were tested for their ability to promote T cell differentiation. […] UNCO224 is an inhibitor of G9a/GLP, so a variety of other G9a/GLP inhibitors were tested.

The next test has as its system 5F cells (5F HSPCs). In words: Primary screen of Cayman epigenetic library in 5F cells, stromal-free T cell differentiation (proT readout). In kind it is cell-based, human. Conditions: for CD5+ CD7+ %: 5F cells, control cells 11.60%; for CD5+ CD7+ % / Z score: e.g., at 500 nM; for Z score: calculated from the number of T progenitors after treatment, Z score greater than 3 = primary hit; for proT cells generated from 5F HSPCs after treatment with primary hits (fold change / number): first screen, FIG. 8.
From the text: FIG. 6 is a schematic showing a primary screen for small molecule inhibitors of epigenetic factors that promote T cell specification, using the stromal-free T cell differentiation methods as described herein. “5F cells” refer to cells expressing 5 transcription factors (HOXA9, ERG, RORA, SOX4, and MYB). The Cayman epigenetic library contains more than 140 small molecules that are known to modulate the activity of a variety of epigenetic ‘writers and erasers’ and ‘reader’ proteins. It may include compounds that modulate the activity of methyltransferases, demethylases, histone acetyltransferases, histone deacetylases, and acetylated histone binding proteins; see e.g., caymanchem.com/product/11076/epigenetics-screening-library-(96-well).
FIG. 7 is a scatterplot showing identification of primary hits from the screen described in FIG. 6. Z scores were calculated for all the small molecules based on the number of T progenitors after treatment. Any small molecule with a Z score greater that 3 was considered as a primary hit. See e.g., Table 2.
FIG. 8 is a bar chart showing fold change of the proT cells generated from 5F HSPCs after treatment with primary hits identified in FIG. 7 (see e.g., Table 2).
as §1

The test system of another test is MDA-MB-231 cells. Conditions: in MDA-MB-231 cells; cited from earlier work.
The next test has as its system HDAC. The conditions noted are these: pan-HDAC, with exception for HDAC6; cited from earlier work.
For test [2], the target named is class III isoenzyme SIRT1 (Homo sapiens, UniProt Q96EB6). Conditions: cited from earlier work.
The test system of another test is CD34+ CD45+ HSPC cells. In words: T cell differentiation of CD34+ CD45+ HSPCs after UNC0224 treatment. In kind it is cell-based, human. The procedure: (§2) FIG. 14A-14C is a series of schematics and graphs showing that UNCO224 enhances T cell commitment at expense of erythroid/myeloid potential. FIG. 14A is a schematic showing a test of whether UNCO224 specifically affects T cell differentiation. iPSC-derived CD34+ HE cells were treated with UNCO224 and differentiated into CD34+ CD45+ hematopoietic stem and progenitor cells (HSPC). These HSPCs were used to generate T cells, erythroid cells, and myeloid cells to determine their multipotency. FIG. 14B is a bar chart showing fold change of proT cells generated from CD34+ CD45+ HSPC cells after treatment with UNCO224 (500 nM). […] FIG. 14C is a bar chart showing number of different types of colonies generated from CD34+ CD45+ HSPCs in a colony-forming unit (CFU) assay. E, erythroid; M, macrophage; G, granulocyte; GM, granulocyte/macrophage; GEMM, granulocyte/erythroid/macrophage/megakaryocyte.
FIG. 15A-15C is a series of graphs showing that UNCO224 promotes T cell specification rather than cell proliferation. FIG. 14B is a bar chart showing fold change of proT cells generated from CD34+ CD45+ HSPC cells after treatment with UNCO224 (500 nM). […] FIG. 14B is a bar chart showing fold change of total cell numbers after 14 days of T cell differentiation of CD34+ CD45+ HSPCs treated with DMSO or UNCO224. […] FIG. 14C is a bar chart showing the percentage of proT cells generated from CD34+ CD45+ HSPCs treated with DMSO or UNCO224. […] N=3, **** P≤0.0001.
UNCO224 enhanced T cell commitment at expense of erythroid/myeloid potential. […] UNCO224 also promoted T cell specification rather than cell proliferation. […] Without wishing to be bound by theory, it is anticipated that H3K9 methylation mediates repression of lymphoid genes. As such, treatment with inhibitors of H3K9 methylation (see e.g., FIG. 6-16, Tables 2-3) promotes T cell differentiation, e.g., when using stromal-free T cell differentiation methods as described herein. Such H3K9 methylation inhibitors can be used in place of, or in combination with, inhibition of histone methyltransferases (e.g., EZH1 knockdown).

A further test relates to CD34+ CD45+ HSPCs. Put plainly: Colony-forming unit (CFU) assay of CD34+ CD45+ HSPCs. In kind it is cell-based, human. The conditions noted are these: FIG. 14C. Here is the method:
as §2
UNCO224 enhanced T cell commitment at expense of erythroid/myeloid potential. […] UNCO224 also promoted T cell specification rather than cell proliferation. […] Without wishing to be bound by theory, it is anticipated that H3K9 methylation mediates repression of lymphoid genes. As such, treatment with inhibitors of H3K9 methylation (see e.g., FIG. 6-16, Tables 2-3) promotes T cell differentiation, e.g., when using stromal-free T cell differentiation methods as described herein. […]

Test [3] deals with class I HDAC (e.g., HDAC1, HDAC2, HDAC3). The conditions noted are these: cited from earlier work.

Entries after “also recorded” stand apart in the source; their conditions may differ.

class III isoenzyme SIRT1, sequence (Q96EB6 whole entry): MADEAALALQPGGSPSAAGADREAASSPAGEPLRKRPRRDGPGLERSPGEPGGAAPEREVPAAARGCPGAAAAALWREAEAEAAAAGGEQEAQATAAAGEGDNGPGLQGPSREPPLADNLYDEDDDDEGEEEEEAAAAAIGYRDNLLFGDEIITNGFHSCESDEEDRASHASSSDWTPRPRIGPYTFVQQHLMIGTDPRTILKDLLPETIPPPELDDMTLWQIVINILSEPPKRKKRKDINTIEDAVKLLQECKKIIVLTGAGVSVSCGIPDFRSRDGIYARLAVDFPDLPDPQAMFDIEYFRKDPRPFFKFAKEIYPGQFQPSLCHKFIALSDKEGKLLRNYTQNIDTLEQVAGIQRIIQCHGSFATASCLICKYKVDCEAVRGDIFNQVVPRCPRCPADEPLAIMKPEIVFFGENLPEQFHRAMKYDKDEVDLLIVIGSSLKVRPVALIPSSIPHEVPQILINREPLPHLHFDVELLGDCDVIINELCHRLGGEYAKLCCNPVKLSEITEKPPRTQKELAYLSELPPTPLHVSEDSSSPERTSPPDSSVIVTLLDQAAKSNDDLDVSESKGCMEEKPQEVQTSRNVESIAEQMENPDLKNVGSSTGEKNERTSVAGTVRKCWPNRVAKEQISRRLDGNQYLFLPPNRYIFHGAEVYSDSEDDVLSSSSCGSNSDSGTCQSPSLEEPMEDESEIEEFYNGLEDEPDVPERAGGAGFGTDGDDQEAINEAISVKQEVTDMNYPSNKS

In the case of `COc1cc2c(NC3CCN(C(C)C)CC3)nc(N3CCC(F)(F)CC3)nc2cc1OCCCN1CCCC1` [UNC0642], in test [1], the “proT cells generated from CD34+ HE cells after treatment with G9a inhibitors at different doses” value was “capable of promoting T cell differentiation; also recorded: significantly increased”. Moreover, the “Exemplary effective dose(s)” value in test [1] (FIG. 12B) was 40 nM.
`CNCc1ccc(-c2[nH]c3cc(F)cc4c3c2CCNC4=O)cc1` [Rucaparib]: in the test on 5F cells (5F HSPCs), the “CD5+ CD7+ %” value is listed as 37.2% and the Z score is given as 0.4679.
As to `COc1cc2c(NC3CCN(C4CCCCC4)CC3)nc(N3CCCN(C(C)C)CC3)nc2cc1OCCCN1CCCCC1` [UNC0646], in the test on MDA-MB-231 cells, the IC50 is 26 nM.
Consider `CCCCc1nc2cc(/C=C/C(=O)NO)ccc2n1CCN(CC)CC` [SB939], for which the IC50 with HDAC is 40 to 140 nM. In test [2], the “activity against SIRT1” value was “no activity”. Also, in the test on 5F cells (5F HSPCs), the “CD5+ CD7+ %” value is on record as 39.4% and the Z score is listed as 5.042.
Consider `COCCCn1c(N)c(C(=O)NC2CCCC2)c2nc3ccccc3nc21` [CAY10591], for which, in the test with 5F cells (5F HSPCs), the “CD5+ CD7+ %” value is reported as 25.9%, the Z score was 8.576 and the “proT cells generated from 5F HSPCs after treatment with primary hits (fold change / number)” value (from here on “proT cells generated … (fold change / number)”) was “significantly increased; also recorded: confirmed to promote T cell specification”.
Consider `COc1cc2c(NC3CCN(C)CC3)nc(N3CCCN(C)CC3)nc2cc1OCCCN(C)C` [UNC0224], for which the “proT cells generated from CD34+ HE cells after treatment with G9a inhibitors at different doses” value in test [1] is listed as “capable of promoting T cell differentiation”. Further, the “fold change of proT cells generated from CD34+ HE cells at different doses” value in test [1] (dose response, FIG. 12B) was “dose-dependent manner”. Also, the “proT cells generated from CD34+ HE cells (verification of primary hits)” value in test [1] (second screen, primary hits tested in triplicate, FIG. 10B, listed as UNCO224) is reported as “significantly increased; also recorded: significant increase”. In addition, in the test with CD34+ CD45+ HSPC cells (UNC0224 500 nM vs DMSO, FIG. 14B/15A), the “fold change of CD5+ CD7+ proT cells generated from CD34+ CD45+ HSPC cells” value is recorded as “significant increase”. In addition, the “fold change of total cell numbers” value in the test with CD34+ CD45+ HSPC cells (after 14 days of T cell differentiation, vs DMSO) is given as “significant decrease”. Further, the “percentage of CD5+ CD7+ proT cells” value in the test with CD34+ CD45+ HSPC cells (vs DMSO, N=3) is “significant increase”. Also, in the test on 5F cells (5F HSPCs), the “CD5+ CD7+ %” value turned out to be 15.0% and the Z score is reported as 3.475. In the test with 5F cells (5F HSPCs) (listed as UNCO224), the “proT cells generated … (fold change / number)” value was “significantly increased; also recorded: confirmed to promote T cell specification”. For the same compound, the “number of erythroid or myeloid lineage colonies” value in the test with CD34+ CD45+ HSPCs is reported as “significant decrease”.
For `COC(=O)c1ccc2c(c1)nc(NC(=O)c1ccccc1)n2CCCc1ccccc1` [BRD4770], the “proT cells generated from CD34+ HE cells after treatment with G9a inhibitors at different doses” value in test [1] is “capable of promoting T cell differentiation; also recorded: significantly increased”. In addition, in test [1] (FIG. 12B), the “Exemplary effective dose(s)” value is 200 nM.
Regarding `O=C(CCCCCCC(=O)Nc1ccccc1)NO` [SAHA, suberoylanilide hydroxamic acid], in the test on 5F cells (5F HSPCs), the “CD5+ CD7+ %” value stood at 34.7% and the Z score is on record as 7.987.
`Cn1cc(/C=C/C(=O)c2cccc(F)c2)cc1/C=C/C(=O)NO` [MC1568]: the “inhibition of class I HDAC activity” value in test [3] is “Class II HDAC (e.g., HDAC4 and HDAC5) inhibitor. Displays no inhibition of class I HDAC activity (e.g., HDAC1, HDAC2, HDAC3)”. Further, in the test on 5F cells (5F HSPCs), the “CD5+ CD7+ %” value is recorded as 14.0%, the Z score was 5.829 and the “proT cells generated … (fold change / number)” value was “significantly increased; also recorded: confirmed to promote T cell specification”.
Turning to `COc1cc2nc(N3CCCN(C)CC3)nc(NC3CCN(Cc4ccccc4)CC3)c2cc1OC` [BIX01294], in test [1], the “proT cells generated from CD34+ HE cells after treatment with G9a inhibitors at different doses” value is given as “capable of promoting T cell differentiation; also recorded: significantly increased”. The “Exemplary effective dose(s)” value in test [1] (FIG. 12B) worked out at 200 nM.
On to `O=C(CCCCCCC(=O)Nc1cccnc1)NO` [Pyroxamide], for which, in the test on 5F cells (5F HSPCs), the “CD5+ CD7+ %” value turned out to be 11.6% and the Z score was 3.122.
For `Cc1cc(Nc2ccc(NC(=O)c3ccc(Nc4ccnc5ccccc45)cc3)cc2)nc(N)n1` [SGI-1027], in that order: 19.9% and 0.09357.
For Oxamflatin [Oxaflatin], in the test with 5F cells (5F HSPCs), the “CD5+ CD7+ %” value is listed as 12.4% and the Z score is listed as 6.54.
For `O=C(CCCCCCC(=O)Nc1ccc(I)cc1)NO` [4-iodo-SAHA], in the test with 5F cells (5F HSPCs), the “CD5+ CD7+ %” value amounted to 25.3% and the Z score is 5.895.
For `CC(C)C(C(=O)Nc1ccc(C(=O)NO)cc1)c1ccccc1` (stereo not shown) [s-HDAC-42], in that order: 43.2% and 4.263.
Regarding `COc1cc2c(NC3CCN(CC4CCCCC4)CC3)nc(N3CCCN(C(C)C)CC3)nc2cc1OCCCN1CCCCC1` [UNC0631], the IC50 with MDA-MB-231 cells is 25 nM.
As to `O=C(CCCCCN1C(=O)c2cccc3cccc(c23)C1=O)NO` [Scriptaid], in the test on 5F cells (5F HSPCs), the “CD5+ CD7+ %” value was 19.7% and the Z score is on record as 3.857.
For the compound `CN(C)c1ccc(C(=O)NCCCCCC(=O)NO)cc1` [CAY10398], in the test with 5F cells (5F HSPCs), the “CD5+ CD7+ %” value came to 36.9% and the Z score is listed as 4.181.
Consider `COc1cc2c(NC3CCN(C(C)C)CC3)nc(C3CCCCC3)nc2cc1OCCCN1CCCC1` [UNC0638], for which, in test [1], the “proT cells generated from CD34+ HE cells after treatment with G9a inhibitors at different doses” value is “capable of promoting T cell differentiation; also recorded: significantly increased”. Also, in test [1] (FIG. 12B), the “Exemplary effective dose(s)” value is 8 nM.

As a reminder, the IC50 is the concentration needed to halve the response being measured.
